Here are results for twelve compounds from patent US20220313701A1, “MODULATORS OF TREX1” (Constellation Pharmaceuticals, Inc., priority 2019, published 2022).

For test [1], the target named is T1, human TREX2 (residues M44-A279) (Homo sapiens, UniProt Q9BQ50).
T1 construct: human TREX2 (residues M44-A279, expressed in E. coli); His-Tev (His tag with TEV site) (N); made in house; host or cells: E. coli
T1 sequence (Q9BQ50 44-279 isoform Q9BQ50-1): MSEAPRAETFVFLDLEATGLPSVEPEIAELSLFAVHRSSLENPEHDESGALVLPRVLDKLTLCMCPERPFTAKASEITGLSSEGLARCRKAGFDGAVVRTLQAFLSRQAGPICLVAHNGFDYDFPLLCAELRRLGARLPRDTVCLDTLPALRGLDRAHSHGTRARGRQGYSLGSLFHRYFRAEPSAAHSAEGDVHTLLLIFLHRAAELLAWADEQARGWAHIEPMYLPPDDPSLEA
Kind of test: TREX2 Biochemical Assay (fluorescence assay, degradation of dsDNA substrate). To be noted: 2.5 nM TREX2, 60 nM dsDNA substrate, 25 minutes at room temperature. Summed up:
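Final conditions: 2.5 nM His-Tev-tagged TREX2 (E. coli-expressed), 60 nM fluorophore/quencher-labelled dsDNA, 50 mM Tris pH 7.4, 150 mM NaCl, 100 mM MgCl2, 1% DMSO; 10-point compound dose-response. Incubated 25 min at room temperature, then EDTA-quenched; fluorescence read at ex 570/em 615 nm. IC50 from four-parameter fit against pre-quenched and no-inhibitor controls.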

Test [2] deals with T2, full length human TREX1 (Homo sapiens, UniProt Q9NSU2).
T2 construct: N-terminally His-Tev tagged full length human TREX1; His-Tev (His tag with TEV site) (N); made in house; host or cells: E. coli
T2 sequence (Q9NSU2 1-314): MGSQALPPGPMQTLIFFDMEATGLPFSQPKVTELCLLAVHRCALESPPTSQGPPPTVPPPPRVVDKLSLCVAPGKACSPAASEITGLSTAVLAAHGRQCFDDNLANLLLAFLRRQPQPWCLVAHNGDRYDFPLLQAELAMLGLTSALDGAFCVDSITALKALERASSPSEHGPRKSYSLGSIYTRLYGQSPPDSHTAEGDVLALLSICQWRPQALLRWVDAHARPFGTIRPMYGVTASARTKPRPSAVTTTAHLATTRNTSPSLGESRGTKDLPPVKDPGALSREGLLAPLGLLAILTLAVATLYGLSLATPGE
Kind of test: TREX1 Biochemical Assay (fluorescence assay, degradation of dsDNA substrate). To be noted: 150 pM TREX1, 60 nM dsDNA substrate, 25 minutes at room temperature. Put shortly:
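N-terminally His-Tev-tagged enzyme expressed in E. coli, 150 pM, with 60 nM dual-labelled dsDNA (TEX615/quencher) in pH 7.4 Tris buffer with MgCl2, 1% DMSO; 10-point dose-response, 25 min at room temperature, then EDTA quench. Fluorescence at 615 nm (excitation 570 nm); IC50 from four-parameter fit against pre-quenched and no-inhibitor controls.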

Molecules are shown by their SMILES. Some results are limits rather than exact numbers.

For orientation: IC50 means the midpoint of a concentration-inhibition curve. `Cc1nn(C)cc1-c1nnc(N2CCC(O)(c3ccc(F)c(F)c3)CC2)s1` [Example 95, 4-(3,4-difluorophenyl)-1-(5-(1,3-dimethyl-1H-pyrazol-4-yl)-1,3,4-thiadiazol-2-yl)piperidin-4-ol]: the IC50 in test [1] was > 100 µM; in test [2], 1 to 10 µM.

As to `Cc1nn(C)cc1-c1nsc(N2CCC(O)(c3ccc(F)c(F)c3)CC2)n1` [Example 96, 4-(3,4-difluorophenyl)-1-(3-(1,3-dimethyl-1H-pyrazol-4-yl)-1,2,4-thiadiazol-5-yl)piperidin-4-ol], the IC50 is > 100 µM in test [1] and 0.1 to 1 µM in test [2].

As to `Cc1nn(C)cc1-c1csc(N2CCC(O)(c3ccc(F)c(F)c3)CC2)n1` [Example 97, 4-(3,4-difluorophenyl)-1-(4-(1,3-dimethyl-1H-pyrazol-4-yl)thiazol-2-yl)piperidin-4-ol], the figures for the IC50 in test [1] and in test [2] were > 100 µM and 1 to 10 µM, respectively.

In the case of `Cc1nn(C)cc1-c1nc(N2CCC(O)(c3ccc(F)c(F)c3)CC2)sc1C(N)=O` [Example 98, 2-(4-(3,4-difluorophenyl)-4-hydroxypiperidin-1-yl)-4-(1,3-dimethyl-1H-pyrazol-4-yl)thiazole-5-carboxamide], the values for the IC50 in test [1] and in test [2] were > 100 µM and 0.1 to 1 µM, respectively.

As to `Cc1nn(C)cc1-c1c[nH]c(=O)c(N2CCC(O)(c3ccc(F)c(F)c3)CC2)n1` [Example 99, 3-(4-(3,4-difluorophenyl)-4-hydroxypiperidin-1-yl)-5-(1,3-dimethyl-1H-pyrazol-4-yl)pyrazin-2(1H)-one], the figures for the IC50 in test [1] and in test [2] were > 100 µM and 0.1 to 1 µM, respectively.

In the case of `Cc1nc(-c2cn(C)nc2-c2ccccc2)cc(N2CCC(O)(c3ccc(F)c(F)c3)CC2)n1` [Example 100, 4-(3,4-difluorophenyl)-1-(2-methyl-6-(1-methyl-3-phenyl-1H-pyrazol-4-yl)pyrimidin-4-yl)piperidin-4-ol], the figures for the IC50 in test [1] and in test [2] were > 100 µM and 0.1 to 1 µM, respectively.

`Cc1nc(-c2cn(C)nc2Cc2ccccc2)cc(N2CCC(O)(c3ccc(F)c(F)c3)CC2)n1` [Example 101, 1-(6-(3-benzyl-1-methyl-1H-pyrazol-4-yl)-2-methylpyrimidin-4-yl)-4-(3,4-difluorophenyl)piperidin-4-ol]: the figures for the IC50 in test [1] and in test [2] were > 100 µM and 0.1 to 1 µM, respectively.

Consider `Cc1nc(N2CCC(O)(c3ccc(F)c(F)c3)CC2)cc(N2CCOC[C@H]2c2ccccc2)n1` [Example 104, (R)-4-(3,4-difluorophenyl)-1-(2-methyl-6-(3-phenylmorpholino)pyrimidin-4-yl)piperidin-4-ol], for which the IC50 in test [1] was > 100 µM; in test [2], 1 to 10 µM.

As for `Cc1nc(N2CCC(O)(c3ccc(F)c(F)c3)CC2)cc(N2CCOC[C@@H]2c2ccccc2)n1` [Example 105, (S)-4-(3,4-difluorophenyl)-1-(2-methyl-6-(3-phenylmorpholino)pyrimidin-4-yl)piperidin-4-ol], the results for the IC50 in test [1] and in test [2] were > 100 µM and 1 to 10 µM, respectively.

Consider `Cc1nc(N2CCC(O)(c3ccc(F)c(F)c3)CC2)cc(-n2ccnc2-c2ccccn2)n1` [Example 106, 4-(3,4-difluorophenyl)-1-(2-methyl-6-(2-(pyridin-2-yl)-1H-imidazol-1-yl)pyrimidin-4-yl)piperidin-4-ol], for which the values for the IC50 in test [1] and in test [2] were > 100 µM and 1 to 10 µM, respectively.

In the case of `Cc1nc(N2CCC(O)(c3ccc(F)c(F)c3)CC2)cc(-n2c(C)cnc2-c2ccccn2)n1` [Example 107, 4-(3,4-difluorophenyl)-1-(2-methyl-6-(5-methyl-2-(pyridin-2-yl)-1H-imidazol-1-yl)pyrimidin-4-yl)piperidin-4-ol], the IC50 in test [1] is > 100 µM; in test [2], 1 to 10 µM.

With `Cc1nc(N2CCC(O)(c3ccc(F)c(F)c3)CC2)cc(N(C)C2(c3ccccn3)CC2)n1` [Example 108, 4-(3,4-difluorophenyl)-1-(2-methyl-6-(methyl(1-(pyridin-2-yl)cyclopropyl)amino)pyrimidin-4-yl)piperidin-4-ol], the IC50 was > 100 µM in test [1] and 0.1 to 1 µM in test [2].
